Measurements: patent publication US10829458B2 (Araxes Pharma LLC, priority 2015, dated 2020)

Molecular target: T1, KRAS G12C 1-169, his-tagged protein, GDP-loaded (Homo sapiens, UniProt P01116, G12C)
T1 construct: KRAS G12C 1-169, his-tagged protein, GDP-loaded
Assay: Biochemical assay: covalent modification of KRAS G12C measured by mass spectrometry (RapidFire/TOF or Q-Exactive)
Settings: covalent binding to KRAS G12C
Outline: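 GDP-loaded his-tagged KRAS G12C 1-169 at 2 μM in 20 mM Hepes, 150 mM NaCl, 1 mM MgCl2 incubated at room temperature with compound (10, 30 or 100 μM final, 2% DMSO) for 30 min, 2 h or 24 h, then quenched with formic acid. Intact-protein LC-MS (RapidFire/TOF or Q-Exactive) with deconvolution quantified modified versus unmodified protein.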

Structure (SMILES) | Binding % (compounds of structure (III)) | Binding % (compounds of structure (I))
C=CC(=O)N1CCN(c2ncnc3c(F)c(-c4c(O)cccc4F)c(Cl)cc23)C2CC21 (stereo not drawn) [III-16, 1-(5-(6-chloro-8-fluoro-7-(2-fluoro-6-hydroxy-phenyl)quinazolin-4-yl)-2,5-diazabicyclo [4.1.0.]heptan-2-yl)prop-2-en-1-one] | + (+ indicates binding activity up to 50%) | 
C=CC(=O)N1CCN(c2ncnc3c(F)c(-c4c(O)cccc4F)c(Cl)cc23)CC1(C)C [III-7, 1-(4-(6-chloro-8-fluoro-7-(2-fluoro-6-hydroxy-phenyl)quinazolin-4-yl)-2,2-dimethyl-piperazin-1-yl)prop-2-en-1-one] | + (+ indicates binding activity up to 50%) | 
C=CC(=O)N1[C@H](C)CN(c2ncnc3c(F)c(-c4c(C)ccc5cn[nH]c45)c(Cl)cc23)C[C@@H]1C [III-35, 1-((2S,6R)-4-(6-chloro-8-fluoro-7-(6-methyl-1H-indazol-7-yl)quinazolin-4-yl)-2,6-dimethyl-piperazin-1-yl)prop-2-en-1-one] | +++ (+++ indicates binding activity greater than 90%) | 
C=CC(=O)N1CCN(c2nc(OC3CCN(C)C3)nc3c(F)c(-c4c(O)cccc4F)c(Cl)cc23)CC1 (stereo not drawn) [Example I-22, 1-(4-(6-chloro-8-fluoro-7-(2-fluoro-6-hydroxyphenyl)-2-(1-methyl-pyrrolidin-3-yloxy)quinazolin-4-yl)piperazin-1-yl)prop-2-en-1-one] |  | ++ (++ indicates binding activity from 50 to 90%)
C=CC(=O)N1CCN(c2nc(OCc3cnc(OC)nc3)nc3c(F)c(-c4c(O)cccc4F)c(Cl)cc23)CC1 [Example I-118, 1-(4-(6-chloro-8-fluoro-7-(2-fluoro-6-hydroxyphenyl)-2-((2-methoxy-pyrimidin-5-yl)methoxy)quinazolin-4-yl)piperazin-1-yl) prop-2-en-1-one] |  | +++ (+++ indicates binding activity greater than 90%)
C=CC(=O)N1CCN(c2nc(N3CC(C)(N(C)C)C3)nc3c(F)c(-c4c(O)cccc4F)c(Cl)cc23)CC1 [Example I-149, 1-(4-(6-chloro-2-(3-(dimethyl-amino)-3-methyl-azetidin-1-yl)-8-fluoro-7-(2-fluoro-6-hydroxyphenyl)quinazolin-4-yl)piperazin-1-yl) prop-2-en-1-one] |  | +++ (+++ indicates binding activity greater than 90%)
C=CC(=O)N1CCN(c2nc(NC3CN(c4ncccn4)C3)nc3c(F)c(-c4c(O)cccc4F)c(Cl)cc23)CC1 [Example I-182, 1-(4-(6-chloro-8-fluoro-7-(2-fluoro-6-hydroxyphenyl)-2-((1-(pyrimidin-2-yl)azetidin-3-yl)amino)quinazolin-4-yl)piperazin-1-yl) prop-2-en-1-one] |  | + (+ indicates binding activity up to 50%)
C=CC(=O)N1CCN(c2nc(OCCN3CCOCC3)nc3c(F)c(-c4c(O)cccc4F)c(Cl)cc23)CC1 [Example I-10, 1-(4-(6-chloro-8-fluoro-7-(2-fluoro-6-hydroxyphenyl)-2-(2-morpholino-ethoxy)quinazolin-4-yl)piperazin-1-yl)prop-2-en-1-one] |  | +++ (+++ indicates binding activity greater than 90%)
C=CC(=O)N1CCN(c2nc(CCNc3ccccn3)nc3c(F)c(-c4c(O)cccc4F)c(Cl)cc23)CC1 [Example I-201, 1-(4-(6-chloro-8-fluoro-7-(2-fluoro-6-hydroxyphenyl)-2-(2-(pyridin-2-ylamino)ethyl)quinazolin-4-yl)piperazin-1-yl) prop-2-en-1-one] |  | ++ (++ indicates binding activity from 50 to 90%)
C=CC(=O)N1CCN(c2nc(NC3CCN(C(C)C)CC3)nc3c(F)c(-c4cc(O)cc5ccccc45)c(Cl)cc23)CC1 [Example I-77, 1-(4-(6-chloro-8-fluoro-7-(3-hydroxy-naphthalen-1-yl)-2-(1-isopropyl-piperidin-4-ylamino)quinazolin-4-yl)piperazin-1-yl)prop-2-en-1-one] |  | +++ (+++ indicates binding activity greater than 90%)
C=CC(=O)N1CCN(c2nc(NC3CCS(=O)(=O)CC3)nc3c(F)c(-c4c(O)cccc4F)c(Cl)cc23)CC1 [Example I-66, 1-(4-(6-chloro-8-fluoro-7-(2-fluoro-6-hydroxyphenyl)-2-(tetrahydro-2H-dioxothio-pyran-4-ylamino)quinazolin-4-yl)piperazin-1-yl) prop-2-en-1-one] |  | +++ (+++ indicates binding activity greater than 90%)
C=CC(=O)N1CCN(c2nc(OCC3CCN(C4CC4)CC3)nc3c(F)c(-c4c(C)ccc5[nH]ncc45)c(Cl)cc23)CC1 [Example I-203, 1-(4-(6-chloro-2-((1-cyclopropyl-piperidin-4-yl)methoxy)-8-fluoro-7-(5-methyl-1H-indazol-4-yl)quinazolin-4-yl)piperazin-1-yl) prop-2-en-1-one] |  | ++ (++ indicates binding activity from 50 to 90%)
C=CC(=O)N1CCN(c2nc(NCCO)nc3c(F)c(-c4c(C)ccc5[nH]ncc45)c(Cl)cc23)CC1 [Example I-5, 1-(4-(6-chloro-8-fluoro-2-(2-hydroxyethyl-amino)-7-(5-methyl-1H-indazol-4-yl)quinazolin-4-yl)piperazin-1-yl)prop-2-en-1-one] |  | + (+ indicates binding activity up to 50%)
C=CC(=O)N1CCN(c2nc(N3CC(N4CC(F)(F)C4)C3)nc3c(F)c(-c4c(O)cccc4F)c(Cl)cc23)CC1 [Example I-179, 1-(4-(6-chloro-2-(3,3-difluoro-[1,3′-biazetidin]-1′-yl)-8-fluoro-7-(2-fluoro-6-hydroxyphenyl)quinazolin-4-yl)piperazin-1-yl) prop-2-en-1-one] |  | + (+ indicates binding activity up to 50%)
C=CC(=O)N1CCN(c2ncnc3c(F)c(-c4c(O)cccc4F)c(Cl)cc23)CC12CC2 [III-10, 1-(7-(6-chloro-8-fluoro-7-(2-fluoro-6-hydroxy-phenyl)quinazolin-4-yl)-4,7-diazaspiro [2.5]octan-4-yl)prop-2-en-1-one] | + (+ indicates binding activity up to 50%) | 
C=CC(=O)N1CCN(c2nc(OCCN3CCOCC3)nc3c(F)c(-c4cc(O)cc5ccccc45)c(Cl)cc23)CC1 (atropisomer, axis not shown) [Example I-52, (R)-1-(4-(6-chloro-8-fluoro-7-(3-hydroxy-naphthalen-1-yl)-2-(2-morpholino-ethoxy)quinazolin-4-yl)piperazin-1-yl)prop-2-en-1-one] |  | + (+ indicates binding activity up to 50%)
C=CC(=O)N1CCN(c2nc(NC3CCN(C4CC4)CC3)nc3c(F)c(-c4c(C)ccc5cn[nH]c45)c(Cl)cc23)CC1 [Example I-196, 1-(4-(6-chloro-2-((1-cyclo-propylpiperidin-4-yl)amino)-8-fluoro-7-(6-methyl-1H-indazol-7-yl)quinazolin-4-yl)piperazin-1-yl) prop-2-en-1-one] |  | ++ (++ indicates binding activity from 50 to 90%)
C=CC(=O)N1CCN(c2nc(P(C)(C)=O)nc3c(F)c(-c4c(O)cccc4F)c(Cl)cc23)CC1 [Example I-205, 1-(4-(6-chloro-2-(dimethyl-phosphoryl)-8-fluoro-7-(2-fluoro-6-hydroxyphenyl)quinazolin-4-yl)piperazin-1-yl) prop-2-en-1-one] |  | ++ (++ indicates binding activity from 50 to 90%)
